Series [1] deals with T1, HCV NS5B RNA polymerase GT 3a L159F (Hepatitis C virus genotype 3a, UniProt Q81258, L2589F).
T1 construct: The 21-amino-acid C-terminal truncated HCV NS5B RNA polymerase; His6; made in house
The series can be described thus: NS5B enzyme assay, GT 3a L159F. The class given is biochemical. To be noted: NS5B enzyme GT 3a L159F; average of two to three replicates ± SD.
Experimental: The 21-amino-acid C-terminal truncated HCV NS5B RNA polymerase can be cloned from the HCV replicon cells, modified with a six-His-terminal tail, expressed in a prokaryotic expression vector (pQE60; Qiagen), and subsequently purified over a Talon cobalt affinity resin column (Clontech, Palo Alto, Calif.).^1 Purification can be monitored by SDS-PAGE and Western blotting. The resulting purified protein can be dialyzed overnight against 50 mM sodium phosphate (pH 8.0)-300 mM sodium chloride-0.5% Triton X-100-50% glycerol-2 mM dithiothreitol. […] Protein can be quantified with the Coomassie Plus protein assay reagent (Pierce) by using a bovine serum albumin standard from the same supplier.

Series [2] has as its target HCV NS5B RNA polymerase GT 3a WT. As to the kind of experiment: NS5B enzyme assay, GT 3a WT. The series is classed as biochemical. To be noted: NS5B enzyme GT 3a WT; average of two to three replicates ± SD. The procedure: The 21-amino-acid C-terminal truncated HCV NS5B RNA polymerase can be cloned from the HCV replicon cells, modified with a six-His-terminal tail, expressed in a prokaryotic expression vector (pQE60; Qiagen), and subsequently purified over a Talon cobalt affinity resin column (Clontech, Palo Alto, Calif.).^1 Purification can be monitored by SDS-PAGE and Western blotting. The resulting purified protein can be dialyzed overnight against 50 mM sodium phosphate (pH 8.0)-300 mM sodium chloride-0.5% Triton X-100-50% glycerol-2 mM dithiothreitol. The dialysate maintains consistent activity for more than 6 months when stored at −20° C. Protein can be quantified with the Coomassie Plus protein assay reagent (Pierce) by using a bovine serum albumin standard from the same supplier.
NS5B RNA polymerase reaction can be studied by monitoring the incorporation of ^32P-labeled UMP into the newly synthesized RNA strand by using minus IRES as the template. […] After the membrane is rinsed with water followed by rinsing with ethanol, the dots can be cut out and the radioactivity counted in a Packard liquid scintillation counter. The amount of product can be calculated on the basis of the total radioactivity in the reaction mixture. The rate of the reaction can be determined from the slope of the time course of product formation. […]

Series [3] addresses human mitochondrial RNA polymerase (POLRMT) (Homo sapiens, UniProt O00411). As to the kind of experiment: In vitro human mitochondrial RNA polymerase (POLRMT) incorporation assay. To be noted: 100 μM rNTP, 2 hr, normalized to natural rNTP.
Experimental: 125 nM of POLRMT was incubated with 500 nM of 5′-radiolabled RNA/DNA hybrid, 10 mM MgCl2 and 100 μM of the corresponding nucleoside triphosphate. For non-nucleoside analogs, 100 μM of inhibitor was added at the same time as 100 μM UTP. Incorporation was allowed to proceed for 2 h at 30° C. and reactions were stopped by the addition of 10 mM EDTA and formamide. Samples were visualized on 20% denaturing polyacrylamide gel. Data were analyzed by normalizing the product fraction for each nucleoside triphosphate analog to that of the corresponding natural nucleoside triphosphate.
100 μM of each rNTP was incubated with POLRMT enzyme and the appropriate DNA/RNA primer/template hybrid and incorporation was evaluated at 2 hr. Nucleoside triphosphate analog incorporation was normalized to that of natural rNTP substrates.

Sequence of human mitochondrial RNA polymerase (POLRMT) (O00411 42-1230): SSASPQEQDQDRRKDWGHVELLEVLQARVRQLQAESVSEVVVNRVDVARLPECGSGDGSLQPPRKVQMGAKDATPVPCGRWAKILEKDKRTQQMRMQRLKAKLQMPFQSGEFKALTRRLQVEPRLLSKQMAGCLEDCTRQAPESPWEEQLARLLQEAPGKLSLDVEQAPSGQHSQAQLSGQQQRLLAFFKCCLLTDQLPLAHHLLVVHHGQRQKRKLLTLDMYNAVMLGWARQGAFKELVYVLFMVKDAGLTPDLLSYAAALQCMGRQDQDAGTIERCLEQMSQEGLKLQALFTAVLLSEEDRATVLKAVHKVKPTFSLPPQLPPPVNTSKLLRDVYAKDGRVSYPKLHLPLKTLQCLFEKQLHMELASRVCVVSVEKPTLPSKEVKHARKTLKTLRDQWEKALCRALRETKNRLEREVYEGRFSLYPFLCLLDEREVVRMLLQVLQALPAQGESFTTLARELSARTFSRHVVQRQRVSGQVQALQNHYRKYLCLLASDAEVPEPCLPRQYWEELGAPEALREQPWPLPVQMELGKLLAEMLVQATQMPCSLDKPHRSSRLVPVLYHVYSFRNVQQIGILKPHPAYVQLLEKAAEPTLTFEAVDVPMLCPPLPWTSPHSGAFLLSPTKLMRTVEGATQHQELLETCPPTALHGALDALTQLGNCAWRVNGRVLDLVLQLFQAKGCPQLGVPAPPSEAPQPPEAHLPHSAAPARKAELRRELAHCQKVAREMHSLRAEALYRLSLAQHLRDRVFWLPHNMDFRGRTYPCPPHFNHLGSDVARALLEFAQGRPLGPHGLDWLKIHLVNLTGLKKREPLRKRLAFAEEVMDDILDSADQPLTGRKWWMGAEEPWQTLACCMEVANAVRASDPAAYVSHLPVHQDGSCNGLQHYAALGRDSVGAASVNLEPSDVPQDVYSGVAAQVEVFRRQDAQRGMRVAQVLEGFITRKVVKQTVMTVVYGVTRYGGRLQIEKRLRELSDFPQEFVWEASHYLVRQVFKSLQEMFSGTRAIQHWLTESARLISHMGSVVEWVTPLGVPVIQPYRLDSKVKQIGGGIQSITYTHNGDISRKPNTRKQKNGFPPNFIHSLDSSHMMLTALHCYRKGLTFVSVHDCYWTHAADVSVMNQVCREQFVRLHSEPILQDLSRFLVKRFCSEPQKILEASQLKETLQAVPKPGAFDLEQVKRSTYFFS
T1 sequence (Q81258 2431-3000 L2589F): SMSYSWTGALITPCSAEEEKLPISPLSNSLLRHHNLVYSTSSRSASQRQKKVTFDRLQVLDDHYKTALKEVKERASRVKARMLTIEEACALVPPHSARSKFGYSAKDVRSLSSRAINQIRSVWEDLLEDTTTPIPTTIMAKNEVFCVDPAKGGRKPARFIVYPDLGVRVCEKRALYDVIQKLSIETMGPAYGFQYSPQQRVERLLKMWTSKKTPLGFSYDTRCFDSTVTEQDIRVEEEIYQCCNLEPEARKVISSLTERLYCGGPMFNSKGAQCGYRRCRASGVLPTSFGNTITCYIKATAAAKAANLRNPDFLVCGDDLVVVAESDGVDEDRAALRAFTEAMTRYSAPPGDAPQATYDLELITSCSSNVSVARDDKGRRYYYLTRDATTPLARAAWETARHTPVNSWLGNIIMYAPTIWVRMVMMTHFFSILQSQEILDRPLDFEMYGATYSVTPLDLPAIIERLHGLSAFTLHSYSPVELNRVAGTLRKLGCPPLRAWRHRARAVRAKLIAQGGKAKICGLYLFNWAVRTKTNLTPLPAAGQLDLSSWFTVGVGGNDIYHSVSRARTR

Consider `C[C@@]1(F)[C@H](O)[C@@H](COP(=O)(O)OP(=O)(O)OP(=O)(O)O)O[C@H]1n1ccc(=O)[nH]c1=O` [2′-Me-2′-F-UTP], for which the EC50 in series [1] was found to be 5.2 ± 1.4 µM; in series [2], 7.2 ± 2.1 µM. For the same compound, in series [3], the “incorporation by POLRMT as compared to natural UTP” value was found to be 3.1%.

Broadly, the EC50 is the concentration needed to bring the measured effect to its halfway point. Read a high EC50 as weaker potency.

These data come from patent US10011629B2, “Nucleoside analogs for treatment of the flaviviridae family of viruses and cancer” (Cocrystal Pharma, Inc., priority 2015, dated 2018).
